Measured values taken from paper PMC3809587, “Structure and function of the Smoothened extracellular domain in vertebrate Hedgehog signaling” (eLife, 2013).
Entries after “also recorded” stand apart in the source; their conditions may differ. Where two headings read alike, the source gives them in different places.

Tests used:
[1] = system: Smo; conditions: ref Wang et al., 2012; cited from earlier work
[2] = molecular target: T1, mSmoM2 (Mus musculus, UniProt P56726, W539L); assay: Hh reporter assay in NIH 3T3 cells transfected with mSmoM2; type: cell-based; conditions: 10 µM each, 12 hr
T1 construct: All mSmo mutants were made using Quickchange or PCR methods in the context of a previously described construct encoding full-length mouse Smo (UniProt P56726); expressed in transfected cells; host or cells: NIH 3T3 cells
Method: (§1) For reporter assays in NIH 3T3 cells, a 10-cm plate of cells was transfected with 8 μg of a 4:1 wt/wt ratio of firefly luciferase reporter driven by an 8xGli-responsive promoter ([Sasaki et al., 1997]) and a Renilla luciferase reporter driven by a constitutive TK promoter (Promega, Madison, WI). The next day, transfected cells were seeded into a 96-well plate, grown to confluence, and treated overnight with drugs diluted in media containing 0.5% fetal bovine serum (FBS). For reporter assays in Smo^−/− cells, 25,000 cells per well were seeded in a 24-well plate 24 hr prior to transfection. The next day, after a media replacement step, each well was transfected with 1 ng Smo construct and 500 ng of the reporter mix described above, using Xtreme Gene HP (Roche, Mannheim, Germany). After overnight transfection, the media were once again changed to fresh media. Cells were grown to confluence and treated with drugs diluted in media with 0.5% FBS for 48 hr. Activity of both reporters was measured using the Dual-Luciferase Reporter kit (Promega) and read on a Synergy H1 Hybrid Multi-Mode Microplate Reader (BioTek, Winooski, VT). The Gli luciferase to Renilla luciferase ratio is reported as ‘Hedgehog reporter activity’. Each experiment, which included three technical replicates, was repeated at least three times.

[3] = system: Hh reporter (8xGli-responsive promoter); assay: Luciferase-based Hh reporter assay; type: cell-based, mouse; conditions: in the absence of Shh
Method: For reporter assays in NIH 3T3 cells, a 10-cm plate of cells was transfected with 8 μg of a 4:1 wt/wt ratio of firefly luciferase reporter driven by an 8xGli-responsive promoter ([Sasaki et al., 1997]) and a Renilla luciferase reporter driven by a constitutive TK promoter (Promega, Madison, WI). The next day, transfected cells were seeded into a 96-well plate, grown to confluence, and treated overnight with drugs diluted in media containing 0.5% fetal bovine serum (FBS). For reporter assays in Smo^−/− cells, 25,000 cells per well were seeded in a 24-well plate 24 hr prior to transfection. […] Activity of both reporters was measured using the Dual-Luciferase Reporter kit (Promega) and read on a Synergy H1 Hybrid Multi-Mode Microplate Reader (BioTek, Winooski, VT). […]
For Hh reporter assays, each point is reported as the mean ± standard deviation (SD) derived from triplicates. […] Relative luciferase activity was calculated by dividing Gli luciferase by Renilla luciferase luminescence. Fold-change in reporter activity was calculated by dividing each replicate by the mean reporter activity of the vehicle-treated control. Normalized (% of max) Hh reporter activity was calculated by setting the maximum value of a set to 100% and zero to 0% using the ‘normalize’ function of GraphPad Prism. […]

[4] = molecular target: T2, mSmo CRD-Fc (Mus musculus, UniProt P56726); assay: Ligand affinity chromatography: mSmo CRD-Fc binding to 20(S)-OHC beads; conditions: free compound added as competitor
T2 construct: made in house; host or cells: 293F suspension cells (secreted)
T2 sequence (P56726 33-183): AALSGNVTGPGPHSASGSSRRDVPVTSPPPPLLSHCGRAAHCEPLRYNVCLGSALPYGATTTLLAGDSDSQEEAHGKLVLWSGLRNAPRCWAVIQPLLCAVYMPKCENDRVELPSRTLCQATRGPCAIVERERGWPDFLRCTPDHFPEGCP
Method: After binding was allowed to proceed for 12 hr at 4°C, the resin was washed and captured protein was eluted as described above. The presence of mSmo CRD-Fc was measured by an anti-human HRP-coupled antibody (1:20,000) or anti-human IR800-coupled antibody (1:10,000; for all quantitation, detected by LiCor Odyssey). The presence of zSmo ectodomain protein was measured by colloidal Coomassie staining (GelCode Blue, Pierce/Thermo Scientific). […]

[5] = molecular target: T3, mSmo D477H (Mus musculus, UniProt P56726, D477H); assay: Hh reporter assay in Smo−/− cells transfected with mSmo D477H; type: cell-based; conditions: Shh, 25 µM, 48 hr
T3 construct: All mSmo mutants were made using Quickchange or PCR methods in the context of a previously described construct encoding full-length mouse Smo (UniProt P56726); expressed in transfected cells; host or cells: Smo-/- mouse embryonic fibroblasts (transient)
Method: as §1

[6] = molecular target: T4, full-length mSmo (Mus musculus, UniProt P56726); assay: Bodipy-cyclopamine binding to Smo-expressing cells by FACS
T4 construct: expressed in transfected cells

[7] = system: endogenous mSmo in cilia of NIH 3T3 cells; set-up: method as in Rohatgi et al., 2009; conditions: ref Rohatgi et al., 2009; cited from earlier work
[8] = system: Hh reporter (8xGli-responsive promoter); conditions: cited from earlier work
[9] = molecular target: T5, ΔCRD-YFP-mSmo (Mus musculus, UniProt P56726, DEL68-184); assay: Hh signaling by ΔCRD-YFP-mSmo in Smo−/− cells (immunoblot, Hh reporter); type: cell-based; conditions: SAG 100 nM, 20(S)-OHC 10 μM
T5 construct: All mSmo mutants were made using Quickchange or PCR methods in the context of a previously described construct encoding full-length mouse Smo (UniProt P56726); expressed in transfected cells

[10] = molecular target: T6, YFP-mSmo (Mus musculus, UniProt P56726); assay: Gli1 and Gli3R immunoblot in Smo−/−:YFP-mSmo cells; type: cell-based; conditions: SAG 100 nM, 20(S)-OHC 10 μM
T6 construct: Smo^−/− cells stably expressing full-length (FL) YFP-mSmo or ΔCRD-YFP-mSmo were treated with Shh, SAG (100 nM) or 20(S)-OHC (10 μM); expressed in transfected cells
Method: Cultured cells stably expressing YFP-mSmo, ΔCRD-YFP-mSmo, or ΔC-YFP-mSmo were scraped into ice-cold PBS containing SigmaFast Protease inhibitor cocktail (Sigma) and collected as a pellet by centrifugation (1000×g, 10 min, 4°C). Cells were lysed (1 hr, 4°C) by agitation in modified RIPA buffer (50 mM sodium-Tris pH 7.4, 150 mM sodium chloride, 2% NP-40, 0.5% deoxycholate, 0.1% sodium-dodecyl sulfate [SDS], 1 mM dithiothreitol and the SigmaFast Protease inhibitor cocktail). After clarification (20,000×g, 45 min, 4°C), the protein concentration of each lysate was measured using the bicinchoninic acid assay (BCA, Pierce/Thermo Scientific, Rockford, IL). Lysate aliquots containing equal amount of total protein were fractionated on an 8% SDS-PAGE gel and transferred to a nitrocellulose membrane for immunoblotting with anti-Gli1 antibody (#L42B10, 1:500; Cell Signaling, Denvers, MA), anti-GFP antibody (1:5000; Novus, Littleton, CO), anti-Gli3 antibody (AF3690 1:200; R&D, Minneapolis, MN) and anti-p38 antibody (ab31828, 1:2000; Abcam, Cambridge, MA). In Figures 1–4, vertical dashed black lines represent non-contiguous lanes from the same immunoblot juxtaposed for clarity.

T4 sequence (P56726 33-793): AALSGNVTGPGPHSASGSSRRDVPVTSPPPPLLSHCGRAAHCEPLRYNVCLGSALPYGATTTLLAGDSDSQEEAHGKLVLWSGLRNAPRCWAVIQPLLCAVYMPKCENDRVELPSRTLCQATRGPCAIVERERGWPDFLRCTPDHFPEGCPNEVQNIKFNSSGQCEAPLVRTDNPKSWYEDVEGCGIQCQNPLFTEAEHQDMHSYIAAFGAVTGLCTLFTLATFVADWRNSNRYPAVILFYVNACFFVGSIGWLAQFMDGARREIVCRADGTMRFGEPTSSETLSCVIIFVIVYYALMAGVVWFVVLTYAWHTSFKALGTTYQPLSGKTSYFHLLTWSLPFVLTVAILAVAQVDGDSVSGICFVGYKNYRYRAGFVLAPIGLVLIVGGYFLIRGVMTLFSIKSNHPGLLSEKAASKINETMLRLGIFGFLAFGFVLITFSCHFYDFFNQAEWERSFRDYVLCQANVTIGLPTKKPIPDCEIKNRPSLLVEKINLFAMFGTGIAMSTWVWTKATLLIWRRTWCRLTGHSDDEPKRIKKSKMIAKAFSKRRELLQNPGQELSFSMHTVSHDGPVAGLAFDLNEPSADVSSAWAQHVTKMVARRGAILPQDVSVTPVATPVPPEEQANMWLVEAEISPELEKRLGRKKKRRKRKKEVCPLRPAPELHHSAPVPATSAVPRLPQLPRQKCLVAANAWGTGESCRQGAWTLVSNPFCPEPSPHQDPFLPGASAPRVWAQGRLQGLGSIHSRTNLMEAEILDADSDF
T1 sequence (P56726 33-793 W539L): as the sequence (P56726 33-793) above, with W507L counted along it
T6 sequence (P56726 33-793): as the sequence (P56726 33-793) above
T3 sequence (P56726 33-793 D477H): as the sequence (P56726 33-793) above, with D445H counted along it
T5 sequence (P56726 with tags, fused parts or gaps DEL68-184): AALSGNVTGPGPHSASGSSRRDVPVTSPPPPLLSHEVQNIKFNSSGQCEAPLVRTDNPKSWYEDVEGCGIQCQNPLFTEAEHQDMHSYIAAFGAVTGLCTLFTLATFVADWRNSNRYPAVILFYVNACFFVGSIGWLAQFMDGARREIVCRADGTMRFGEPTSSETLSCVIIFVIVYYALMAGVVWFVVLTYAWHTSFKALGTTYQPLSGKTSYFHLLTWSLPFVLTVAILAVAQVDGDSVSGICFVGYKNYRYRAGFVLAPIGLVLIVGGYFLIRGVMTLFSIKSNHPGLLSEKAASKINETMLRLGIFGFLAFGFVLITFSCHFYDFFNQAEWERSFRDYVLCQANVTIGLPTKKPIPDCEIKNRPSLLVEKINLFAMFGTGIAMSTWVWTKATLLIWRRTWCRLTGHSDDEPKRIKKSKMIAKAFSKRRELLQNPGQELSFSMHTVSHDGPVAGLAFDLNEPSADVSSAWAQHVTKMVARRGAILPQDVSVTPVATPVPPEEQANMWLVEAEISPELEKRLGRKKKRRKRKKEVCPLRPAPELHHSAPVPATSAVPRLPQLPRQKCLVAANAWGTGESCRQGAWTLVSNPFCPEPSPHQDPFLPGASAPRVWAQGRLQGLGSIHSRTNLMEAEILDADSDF

CC(C)C(=O)OCC(=O)[C@@]12O[C@H](C3CCCCC3)O[C@@H]1C[C@H]1[C@@H]3CCC4=CC(=O)C=C[C@]4(C)[C@H]3[C@@H](O)C[C@@]12C [Ciclesonide]
competition with cyclopamine for binding to Smo [1]: fail to compete with cyclopamine for binding to Smo

C#CCCC(=O)[C@H]1CC[C@H]2[C@@H]3CC=C4C[C@@H](O)CC[C@]4(C)[C@H]3CC[C@]12C [20-keto-yne, (3β, 17β)-17-(1-oxopent-4-yn-1-yl)-androst-5-en-3-ol]
signaling by mSmoM2 [2]: reduced signaling
activation of Hh signaling [3]: weak activators of signaling
inhibition of binding of mSmo CRD-Fc to 20(S)-OHC beads [4]: blocked the binding
signaling by mSmo D477H [5]: reduced signaling
competition of bodipy-cyclopamine binding [6]: did not affect the binding

Cc1nn(-c2ccccc2)c(C)c1/C=N/N1CCN(Cc2ccccc2)CC1 [SANT-1]
Shh-induced Smo accumulation in cilia [7]: prevent Shh-induced Smo accumulation in cilia
inhibition of binding of mSmo CRD-Fc to 20(S)-OHC beads [4]: failed to inhibit the binding
competition of bodipy-cyclopamine binding [6]: can be competed

(3β, 17β)-17-[(2R)-2-hydroxy-hex-4-yn-2-yl]-androst-5-en-3-ol [20(R)-yne]
signaling by mSmoM2 [2]: reduced signaling
activation of Hh signaling [3]: weak activators of signaling
inhibition of binding of mSmo CRD-Fc to 20(S)-OHC beads [4]: blocked the binding
signaling by mSmo D477H [5]: reduced signaling
competition of bodipy-cyclopamine binding [6]: did not affect the binding

CS(=O)(=O)c1ccc(C(=O)Nc2ccc(Cl)c(-c3ccccn3)c2)c(Cl)c1 [Vismodegib]
Shh-induced Smo accumulation in cilia [7]: prevent Shh-induced Smo accumulation in cilia

CC(C)CCCC(=O)[C@H]1CC[C@H]2[C@@H]3CC=C4C[C@@H](O)CC[C@]4(C)[C@H]3CC[C@]12C [20-keto-cholesterol]
inhibition of binding of mSmo CRD-Fc to 20(S)-OHC beads [4]: failed to inhibit

CC(C)CCN[C@@H](C)[C@H]1CC[C@H]2[C@@H]3CC=C4C[C@@H](O)CC[C@]4(C)[C@H]3CC[C@]12C [22-azacholesterol]
block of signaling induced by SAG or by mSmoM2 ([8]; ref Nedelcu et al., 2013): does not block signaling induced by SAG or by mSmoM2

C#CCC[C@](C)(O)[C@H]1CC[C@H]2[C@@H]3CC=C4C[C@@H](O)CC[C@]4(C)[C@H]3CC[C@@]21C [20(S)-yne]
potency relative to 20(S)-OHC ([8]; Hh-activation potency, ref Nachtergaele et al., 2012): ~10 fold
inhibition of binding of mSmo CRD-Fc to 20(S)-OHC beads [4]: Binding could be inhibited

CCC(C)n1ncn(-c2ccc(N3CCN(c4ccc(OCC5COC(Cn6cncn6)(c6ccc(Cl)cc6Cl)O5)cc4)CC3)cc2)c1=O (stereo not shown) [Itraconazole]
inhibition of binding of mSmo CRD-Fc to 20(S)-OHC beads [4]: failed to inhibit the binding

CC(C)CCC[C@@](C)(O)[C@H]1CC[C@H]2[C@@H]3CC=C4C[C@@H](O)CC[C@]4(C)[C@H]3CC[C@@]21C [20(R)-OHC]
activation of Hh signaling ([8]; ref Nachtergaele et al., 2012): cannot activate Hh signaling
inhibition of binding of mSmo CRD-Fc to 20(S)-OHC beads [4]: unable to inhibit binding; also recorded: failed to inhibit

CC(C)CCC[C@@](C)(O)[C@@H]1CC[C@@H]2[C@H]3CC=C4C[C@H](O)CC[C@@]4(C)[C@@H]3CC[C@]21C [ent-20(S)-OHC]
activation of Hh signaling ([8]; ref Nachtergaele et al., 2012): cannot activate Hh signaling
inhibition of binding of mSmo CRD-Fc to 20(S)-OHC beads [4]: unable to inhibit binding

CC(C)CC[C@H](O)[C@@H](C)[C@H]1CC[C@H]2[C@@H]3CC=C4C[C@@H](O)CC[C@]4(C)[C@H]3CC[C@]12C [22(S)-OHC]
activation of Hh signaling ([8]; ref Nachtergaele et al., 2012): cannot activate Hh signaling
inhibition of binding of mSmo CRD-Fc to 20(S)-OHC beads [4]: unable to inhibit binding

CNC1CCC(N(Cc2cccc(-c3ccncc3)c2)C(=O)c2sc3ccccc3c2Cl)CC1 (stereo not shown) [SAG]
response of ΔCRD-YFP-mSmo to agonist (Hh target genes, Gli3R) [9]: retained its ability to respond to SAG
Gli3R level [10]: loss of the repressor form of Gli3 (Gli3R) was observed
activation of Hh target gene Gli1 [10]: could activate a Hh target gene, Gli1
inhibition of binding of mSmo CRD-Fc to 20(S)-OHC beads [4]: failed to inhibit the binding

CCCC1O[C@@H]2C[C@H]3[C@@H]4CCC5=CC(=O)C=C[C@]5(C)[C@H]4[C@@H](O)C[C@]3(C)[C@]2(C(=O)CO)O1 (stereo partly shown) [Budesonide]
competition with cyclopamine for binding to Smo [1]: fail to compete with cyclopamine for binding to Smo
